Test results as given in patent publication US10435399B2, “HDAC6 inhibitory heterocyclic compound” (TAKEDA PHARMACEUTICAL COMPANY LIMITED, priority 2017, dated 2019).

target: T1, HDAC6 enzyme (Homo sapiens, UniProt Q9UBN7); assay: HDAC6 enzyme inhibitory activity (HDAC-Glo I/II Assay kit); type: biochemical; settings: 10 μM; wells without enzyme = 100% inhibition; read-out: HDAC6 inhibitory rate (%) (10 μM)
T1 construct: transducing full length HDAC6 gene into Sf-9 insect cells; GST; purchased SignalChem; host or cells: Sf-9 insect cells
T1 sequence (Q9UBN7 1-1215): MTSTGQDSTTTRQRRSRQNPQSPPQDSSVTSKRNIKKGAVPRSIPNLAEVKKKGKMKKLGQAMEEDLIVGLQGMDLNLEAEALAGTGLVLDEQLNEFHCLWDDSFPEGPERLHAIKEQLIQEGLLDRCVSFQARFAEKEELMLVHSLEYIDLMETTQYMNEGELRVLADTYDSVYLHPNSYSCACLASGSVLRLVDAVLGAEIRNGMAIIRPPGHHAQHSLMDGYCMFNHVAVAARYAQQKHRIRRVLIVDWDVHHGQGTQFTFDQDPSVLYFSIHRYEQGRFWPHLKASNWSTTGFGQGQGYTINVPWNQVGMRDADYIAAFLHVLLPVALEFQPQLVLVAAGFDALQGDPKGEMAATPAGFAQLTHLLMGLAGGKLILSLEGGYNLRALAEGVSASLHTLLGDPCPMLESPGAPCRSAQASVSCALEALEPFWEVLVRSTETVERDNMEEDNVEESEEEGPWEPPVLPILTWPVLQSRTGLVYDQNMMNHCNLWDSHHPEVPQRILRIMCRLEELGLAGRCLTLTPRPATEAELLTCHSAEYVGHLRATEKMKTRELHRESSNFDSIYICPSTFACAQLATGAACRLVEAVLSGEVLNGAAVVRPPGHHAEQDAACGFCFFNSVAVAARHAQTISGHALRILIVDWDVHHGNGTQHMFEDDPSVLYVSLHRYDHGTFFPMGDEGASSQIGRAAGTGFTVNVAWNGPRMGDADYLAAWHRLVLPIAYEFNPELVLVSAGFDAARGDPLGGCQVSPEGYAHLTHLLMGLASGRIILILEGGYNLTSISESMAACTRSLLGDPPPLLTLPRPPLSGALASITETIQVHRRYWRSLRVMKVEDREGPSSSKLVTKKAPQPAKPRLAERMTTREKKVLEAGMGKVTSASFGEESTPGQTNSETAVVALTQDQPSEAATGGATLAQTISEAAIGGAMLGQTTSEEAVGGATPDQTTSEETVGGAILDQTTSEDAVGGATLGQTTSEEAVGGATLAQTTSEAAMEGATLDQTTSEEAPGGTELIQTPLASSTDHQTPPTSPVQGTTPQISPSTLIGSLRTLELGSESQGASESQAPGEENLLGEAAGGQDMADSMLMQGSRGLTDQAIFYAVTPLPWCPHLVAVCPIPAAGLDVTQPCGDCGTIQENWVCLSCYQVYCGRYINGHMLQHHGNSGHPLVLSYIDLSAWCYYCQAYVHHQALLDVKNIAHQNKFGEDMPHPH
Outline: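 Test compound is preincubated 60 min at RT with full-length insect-cell HDAC6 in Tris-HCl pH 7.5 with 135 mM NaCl and 1 mM MgCl2. A 20 min room-temperature HDAC-Glo reaction follows, with luminescent read-out.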

Structure (SMILES)	inhibition at 10 µM [%]
O=C1c2cc(-c3nnc(C(F)F)o3)ccc2CN1CCOCc1ccccc1 [Example 234, 2-(2-(benzyloxy)ethyl)-6-(5-(difluoromethyl)-1,3,4-oxadiazol-2-yl)isoindolin-1-one]	98
O=C1c2cc(-c3nnc(C(F)F)o3)cc(F)c2CN1[C@@H]1CCCC[C@H]1NC(=O)C1(C(F)F)CC1 [Example 236, 1-(difluoromethyl)-N-((1R,2R)-2-(6-(5-(difluoromethyl)-1,3,4-oxadiazol-2-yl)-4-fluoro-1-oxo-1,3-dihydro-2H-isoindol-2-yl)-cyclohexyl)cyclopropanecarbox-amide]	98
O=C1c2cc(-c3nnc(C(F)F)o3)cnc2CN1[C@@H]1CCCC[C@H]1NC(=O)C(F)(F)C1CC1 [Example 237]	100
O=C1c2cc(-c3nnc(C(F)F)o3)ccc2CN1c1ccccc1-c1ccccn1 [Example 238, 6-(5-(difluoromethyl)-1,3,4-oxadiazol-2-yl)-2-(2-(pyridin-2-yl)phenyl)isoindolin-1-one]	100
O=C1c2ccc(-c3nnc(C(F)F)o3)cc2C(=O)N1C[C@H]1COCCN1S(=O)(=O)C1CC1 [Example 239, 2-(((3S)-4-(cyclopropylsulfonyl)-morpholin-3-yl)methyl)-5-(5-(difluoromethyl)-1,3,4-oxadiazol-2-yl)-1H-isoindole-1,3(2H)-dione]	99
O=C1c2cc(-c3nnc(C(F)F)o3)cc(F)c2CN1[C@@H]1CCCC[C@H]1NS(=O)(=O)C1CC1 [Example 242, N-((1R,2R)-2-(6-(5-(difluoro-methyl)-1,3,4-oxadiazol-2-yl)-4-fluoro-1-oxo-1,3-dihydro-2H-isoindol-2-yl)cyclohexyl)-cyclopropanesulfonamide]	101
N#Cc1cccc(-c2ccccc2N2Cc3ncc(-c4nnc(C(F)F)o4)cc3C2=O)c1 [Example 243, 2′-(3-(5-(difluoromethyl)-1,3,4-oxadiazol-2-yl)-5-oxo-5,7-dihydro-6H-pyrrolo[3,4-b]pyridin-6-yl)biphenyl-3-carbonitrile]	99
O=C1c2cc(-c3nnc(C(F)F)o3)ccc2CN1[C@@H]1CCCC[C@H]1NS(=O)(=O)CC(F)(F)F [Example 245, N-((1R,2R)-2-(6-(5-(difluoro-methyl)-1,3,4-oxadiazol-2-yl)-1-oxo-1,3-dihydro-2H-isoindol-2-yl)cyclohexyl)-2,2,2-trifluoro-ethanesulfonamide]	101
O=C1c2cc(-c3nnc(C(F)F)o3)ccc2CN1[C@@H]1CCCC[C@H]1NS(=O)(=O)C1CC1 [Example 246, N-((1R,2R)-2-(6-(5-(difluoro-methyl)-1,3,4-oxadiazol-2-yl)-1-oxo-1,3-dihydro-2H-isoindol-2-yl)cyclohexyl)cyclopropane-sulfonamide]	100
O=C1c2cc(-c3nnc(C(F)F)o3)ccc2CN1c1ccc(F)cc1Br [Example 247, 2-(2-bromo-4-fluorophenyl)-6-(5-(difluoromethyl)-1,3,4-oxadiazol-2-yl)isoindolin-1-one]	94
N#Cc1cccc(-c2cc(Cl)ccc2N2Cc3ccc(-c4nnc(C(F)F)o4)cc3C2=O)c1 [Example 248, 5′-chloro-2′-(6-(5-(difluoro-methyl)-1,3,4-oxadiazol-2-yl)-1-oxo-1,3-dihydro-2H-isoindol-2-yl)biphenyl-3-carbonitrile]	100
O=C1c2cc(-c3nnc(C(F)F)o3)cc(F)c2CN1C[C@H]1COCCN1S(=O)(=O)c1ccc(F)cc1 [Example 252, 6-(5-(difluoromethyl)-1,3,4-oxadiazol-2-yl)-4-fluoro-2-(((3S)-4-((4-fluorophenyl)-sulfonyl)morpholin-3-yl)-methyl)isoindolin-1-one]	99
O=C(O[C@@H]1CCCC[C@H]1N1Cc2ccc(-c3nnc(C(F)F)o3)cc2C1=O)N1CCCCC1 [Example 254, (1R,2R)-2-(6-(5-(difluoro-methyl)-1,3,4-oxadiazol-2-yl)-1-oxo-1,3-dihydro-2H-isoindol-2-yl)cyclohexyl piperidine-1-carboxylate]	102
CC(C)(C)OC(=O)N[C@H]1CCCC[C@H]1N1Cc2ccc(-c3nnc(C(F)F)o3)cc2C1=O [Example 255, tert-butyl ((1S,2R)-2-(6-(5-(difluoromethyl)-1,3,4-oxadiazol-2-yl)-1-oxo-1,3-dihydro-2H-isoindol-2-yl)cyclohexyl)carbamate]	100
N[C@H]1CCCC[C@H]1N1Cc2ccc(-c3nnc(C(F)F)o3)cc2C1=O [Example 256]	91
CC(F)(F)C(=O)N[C@H]1CCCC[C@H]1N1Cc2ccc(-c3nnc(C(F)F)o3)cc2C1=O [Example 258, N-((1S,2R)-2-(6-(5-(difluoro-methyl)-1,3,4-oxadiazol-2-yl)-1-oxo-1,3-dihydro-2H-isoindol-2-yl)cyclohexyl)-2,2-difluoro-propanamide]	101

The next lines start with the values.

inhibition at 10 µM [%]	Structure (SMILES)
99	O=C1c2cc(-c3nnc(C(F)F)o3)cnc2CN1[C@@H]1CCCC[C@H]1NC(=O)C1(C(F)F)CC1 [Example 235, 1-(difluoromethyl)-N-((1R,2R)-2-(3-(5-(difluoromethyl)-1,3,4-oxadiazol-2-yl)-5-oxo-5,7-dihydro-6H-pyrrolo[3,4-b]pyridin-6-yl)-cyclohexyl)cyclopropane-carboxamide]
98	O=C1c2cc(-c3nnc(C(F)F)o3)cnc2CN1c1ccccc1Br [Example 240, 6-(2-bromophenyl)-3-(5-(difluoro-methyl)-1,3,4-oxadiazol-2-yl)-6,7-dihydro-5H-pyrrolo[3,4-b]-pyridin-5-one]
91	O=C1c2cc(-c3nnc(C(F)F)o3)ccc2CN1c1ccc(Cl)cc1Br [Example 241, 2-(2-bromo-4-chlorophenyl)-6-(5-(difluoromethyl)-1,3,4-oxadiazol-2-yl)isoindolin-1-one]
101	O=C1c2cc(-c3nnc(C(F)F)o3)cc(F)c2CN1[C@@H]1CCCC[C@H]1NS(=O)(=O)CC(F)(F)F [Example 244]
100	N#Cc1cccc(-c2cc(F)ccc2N2Cc3ccc(-c4nnc(C(F)F)o4)cc3C2=O)c1 [Example 249, 2′-(6-(5-(difluoromethyl)-1,3,4-oxadiazol-2-yl)-1-oxo-1,3-dihydro-2H-isoindol-2-yl)-5′-fluorobiphenyl-3-carbonitrile]
95	Cn1cc(Br)c(N2Cc3ccc(-c4nnc(C(F)F)o4)cc3C2=O)n1 [Example 250, 2-(4-bromo-1-methyl-1H-pyrazol-3-yl)-6-(5-(difluoro-methyl)-1,3,4-oxadiazol-2-yl)isoindolin-1-one]
100	O=C1c2cc(-c3nnc(C(F)F)o3)cc(F)c2CN1C[C@H]1COCCN1S(=O)(=O)c1ccccc1F [Example 251, 6-(5-(difluoromethyl)-1,3,4-oxadiazol-2-yl)-4-fluoro-2-(((3S)-4-((2-fluorophenyl)-sulfonyl)morpholin-3-yl)-methyl)isoindolin-1-one]
72	O=C1c2cc(-c3nnc(C(F)F)o3)ccc2CN1c1cc(Cl)ccc1Br [Example 253, 2-(2-bromo-5-chlorophenyl)-6-(5-(difluoromethyl)-1,3,4-oxadiazol-2-yl)isoindolin-1-one]
101	O=C1c2cc(-c3nnc(C(F)F)o3)ccc2CN1[C@@H]1CCCC[C@H]1NCC(F)(F)F [Example 257, 6-(5-(difluoromethyl)-1,3,4-oxadiazol-2-yl)-2-((1R,2R)-2-((2,2,2-trifluoroethyl)amino)-cyclohexyl)isoindolin-1-one]
101	O=C1c2cc(-c3nnc(C(F)F)o3)ccc2CN1[C@@H]1CCCC[C@@H]1NC(=O)C1(C(F)(F)F)CC1 [Example 259, N-((1S,2R)-2-(6-(5-(difluoro-methyl)-1,3,4-oxadiazol-2-yl)-1-oxo-1,3-dihydro-2H-isoindol-2-yl)cyclohexyl)-1-(trifluoromethyl)cyclopro-panecarboxamide]
